Test results: PubChem BioAssay (NCI)
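Briefly, cells in 96-well plates were exposed to five compound concentrations for 48 h, and endpoints were estimated by linear interpolation. GI50 = concentration required for 50% inhibition of growth. TGI denotes the concentration required for complete inhibition of growth.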

Assays:
Test in all cases: DTP human tumour cell line panel, 48 h
M14 melanoma = tested on: M14 melanoma
ACHN renal = tested on: ACHN renal
SF-295 CNS = tested on: SF-295 CNS
A498 renal = tested on: A498 renal
SNB-75 CNS = tested on: SNB-75 CNS
MDA-MB-435 = tested on: MDA-MB-435
CAKI-1 renal = tested on: CAKI-1 renal
SW-620 colon = tested on: SW-620 colon
RXF 393 renal = tested on: RXF 393 renal
NCI-H522 lung = tested on: NCI-H522 lung

SMILES	GI50 (M14 melanoma)	TGI (M14 melanoma)	GI50 (ACHN renal)	TGI (ACHN renal)	GI50 (SF-295 CNS)	TGI (SF-295 CNS)	GI50 (A498 renal)	TGI (A498 renal)	GI50 (SNB-75 CNS)	TGI (SNB-75 CNS)	GI50 (MDA-MB-435)	TGI (MDA-MB-435)	GI50 (CAKI-1 renal)	TGI (CAKI-1 renal)	GI50 (SW-620 colon)	TGI (SW-620 colon)	GI50 (RXF 393 renal)	TGI (RXF 393 renal)	GI50 (NCI-H522 lung)	TGI (NCI-H522 lung)
Cc1ccc(NC(=O)c2ccoc2)cc1-c1ccc(C(=O)NCC2CC2)cc1	> 25 µM	> 25 µM	> 25 µM	> 25 µM	> 14.8 µM	> 25 µM	> 11.3 µM	> 25 µM	> 25 µM	> 25 µM	> 25 µM	> 25 µM	> 25 µM	> 25 µM	> 25 µM	> 25 µM	> 25 µM	> 25 µM	> 15.9 µM	> 25 µM
CSC(=Nc1ccc([N+](=O)[O-])cc1C#N)NC(=O)c1ccccc1		> 100 µM		> 100 µM		> 100 µM		> 100 µM		> 100 µM				> 100 µM		> 100 µM		> 100 µM		
O=S1(=O)[C@H](c2ccccc2)c2c(-c3ccccc3)sc(-c3ccccc3)c2[C@@H]1c1ccccc1		> 100 µM		> 100 µM		> 100 µM				> 100 µM				> 100 µM		> 100 µM		> 100 µM		> 100 µM
Nc1nc(N)c2cc(S(=O)(=O)c3cccc(C(F)(F)F)c3)ccc2n1	2 µM	> 100 µM	4.43 µM	> 100 µM	2.57 µM	97.5 µM			12.9 µM	39.8 µM	2.12 µM	> 100 µM	> 100 µM	> 100 µM	0.989 µM	> 100 µM	3.8 µM	57.8 µM	3.05 µM	> 100 µM
CCCCCOC(=O)c1c(C)[nH]c(/C=C2\N=C(c3ccc[nH]3)C=C2OC)c1C	0.0204 µM	0.0481 µM	0.0396 µM	1.21 µM	0.0966 µM	0.544 µM	0.124 µM	1.02 µM	0.0429 µM	0.619 µM	0.0348 µM	0.734 µM	0.0335 µM	0.335 µM	0.0308 µM	1.28 µM	0.0664 µM	0.9 µM	0.0392 µM	1.27 µM
CCC(=O)N1C(=S)SC[C@H]1C(=O)OC		> 100 µM		> 100 µM		> 100 µM		> 100 µM		> 100 µM				> 100 µM		> 100 µM		> 100 µM		> 100 µM
CN(c1ccccc1)c1nc(=[N+](C)C)ss1		> 100 µM		> 100 µM		> 100 µM		> 100 µM		> 100 µM				> 100 µM		> 100 µM		> 100 µM		> 100 µM
CS(=O)(=O)N(CCC#N)c1ccc(/C=C2\N=C(c3ccccc3Cl)OC2=O)cc1		> 100 µM		> 100 µM		> 100 µM		> 100 µM		> 100 µM				> 100 µM		> 100 µM		> 100 µM		> 100 µM
[N-]=[N+]=NC1C(Cl)C(=O)NC(=O)N1[C@H]1C[C@H](O)[C@@H](CO)O1 (stereo partly specified)		> 100 µM		> 100 µM		> 100 µM		> 100 µM		> 100 µM				> 100 µM		> 100 µM		> 100 µM	5.31 µM	36.2 µM
O=C(O)C1CCCN1 (stereo unspecified)		> 100 µM		> 100 µM		> 100 µM		> 100 µM		> 100 µM		> 100 µM				> 100 µM		> 100 µM		> 100 µM
CCOc1ccc2c(c1)[n+]([O-])c(C(N)=O)c(N)[n+]2[O-]		> 100 µM		> 100 µM		> 100 µM		> 100 µM		> 100 µM				> 100 µM		> 100 µM		> 100 µM		> 100 µM
O=C(c1ccccc1)[C@H]1Nc2ccc(Cl)cc2[C@H]2c3ccccc3O[C@H]21		30.1 µM		28.7 µM		28.9 µM		24.5 µM		25.6 µM				29.1 µM		31.2 µM		22.4 µM		33.8 µM
[O-]c1ccccc1C=NCCN=Cc1ccccc1[O-].[O]=[U+2]=[O]	40.9 µM	> 85.8 µM	25.9 µM	> 60.7 µM	28.7 µM	> 72.3 µM	> 45.6 µM	> 64.8 µM	22.9 µM	70.2 µM			> 46.7 µM	> 67.6 µM	> 100 µM	> 100 µM	24.1 µM	48.5 µM	> 53.4 µM	> 75.2 µM
O=C1C2C3SC(c4cc5ccccc5cc43)C2C(=O)N1c1ccccc1 (stereo unspecified)		> 100 µM		> 100 µM		> 100 µM		> 100 µM		45.4 µM				> 100 µM		> 100 µM		94.3 µM		> 100 µM
CC(C)CC(NC(=O)C(O)C(N)Cc1ccccc1)C(=O)O (stereo unspecified)		> 100 µM		> 100 µM		> 100 µM				> 100 µM		> 100 µM		> 100 µM		> 100 µM		> 100 µM		
O=C1CN=C(c2ccccc2)c2ccncc2N1		> 100 µM		> 100 µM		> 100 µM		> 100 µM		> 100 µM				> 100 µM		> 100 µM		> 100 µM		> 100 µM
CCOP(=O)(OCC)C(C(=O)OC)C(=O)C(=O)Nc1cccc([N+](=O)[O-])c1 (stereo unspecified)		> 100 µM		> 100 µM		> 100 µM		> 100 µM		> 100 µM				> 100 µM		> 100 µM		> 100 µM		> 100 µM
CN(N=O)C(=O)NC(CCCCNC(=O)OCc1ccccc1)C(=O)OCc1ccccc1 (stereo unspecified)		36.9 µM		32.3 µM		> 100 µM		> 100 µM		36 µM				52.8 µM		> 100 µM		61.8 µM		29.1 µM
CC(C)N1CCOC(c2ccc(O)c(O)c2)C1 (stereo unspecified)		> 100 µM		> 100 µM		> 100 µM				> 100 µM				> 100 µM		> 100 µM		> 100 µM		> 100 µM
COc1ccc(C(O)C(c2ccc(OCc3ccccc3)cc2)c2ccc(OCc3ccccc3)cc2)cc1 (stereo unspecified)		> 100 µM		> 100 µM		> 100 µM				> 100 µM				> 100 µM		> 100 µM		> 100 µM		> 100 µM
